# In US20110195951A1, “DIAZAINDOLE DERIVATIVES AND THEIR USE IN THE INHIBITION OF C-JUN N-TERMINAL KINASE” (EISAI R&D MANAGEMENT CO., LTD., priority 2008, published 2011):
# Target: JNK3 (Homo sapiens, UniProt P53779)
# Test: JNK3 SPA assay (phosphorylation of GST-c-Jun)
# Format: biochemical
# Conditions: 3.33 μM ATP, GST-c-Jun substrate, 30 minutes at room temperature, read-out: IC50 values for compounds (I) against JNK3
# Procedure: JNK1, JNK2, JNK3—SPA Assay
# • 1. The compound was dissolved in DMSO to a convenient concentration and this was diluted in 10% DMSO to a five times concentrate of the desired starting concentration (frequently 1:100). • 2. 10 μl of 500 mM EDTA was added to alternative wells of the Opti-plate row, which would receive kinase reaction plus DMSO. This created the negative control. • 3. For the JNK2 and JNK3 assay, compounds were prepared in six 2-fold dilutions with water and each concentration is tested in duplicate. For the JNK1 assay compounds are prepared in four 5-fold dilutions with water which are tested in triplicate. Controls were treated identically. • 4. […] per well of each compound concentration was transferred to an Opti-plate, in duplicate. • 5. 30 μl (JNK2/3 SPA) or 50 μl (JNK1 SPA) of substrate solution (25 mM HEPES pH 7.5, 10 mM magnesium acetate with 3.33 μM ATP (JNK2/3) or 2 μM ATP (JNK1), approximately 7.5 kBq [γ-^33P] ATP, GST-c-Jun, in water) was added to each well. • 6. 50 μl (JNK2/3 SPA) or 30 μl (JNK1 SPA) of kinase solution (JNK in 25 mM HEPES pH 7.5, 10 mM Mg Acetate) was added to each well.
# • 7. The plate was incubated for 30 minutes at room temperature. • 8. 100 μl of bead/stop solution was added to each well (5 mg/ml glutathione-PVT-SPA beads, 40 mM ATP in PBS). • 9. Plates were sealed and incubated for 30 minutes at room temperature, centrifuged for 10 minutes at 2500 g and counted. • 10. The IC50 values were calculated as the concentration of the compound being tested at which the phosphorylation of c-Jun was decreased to 50% of the control value.
# JNK3, sequence (P53779 whole entry, species assumed): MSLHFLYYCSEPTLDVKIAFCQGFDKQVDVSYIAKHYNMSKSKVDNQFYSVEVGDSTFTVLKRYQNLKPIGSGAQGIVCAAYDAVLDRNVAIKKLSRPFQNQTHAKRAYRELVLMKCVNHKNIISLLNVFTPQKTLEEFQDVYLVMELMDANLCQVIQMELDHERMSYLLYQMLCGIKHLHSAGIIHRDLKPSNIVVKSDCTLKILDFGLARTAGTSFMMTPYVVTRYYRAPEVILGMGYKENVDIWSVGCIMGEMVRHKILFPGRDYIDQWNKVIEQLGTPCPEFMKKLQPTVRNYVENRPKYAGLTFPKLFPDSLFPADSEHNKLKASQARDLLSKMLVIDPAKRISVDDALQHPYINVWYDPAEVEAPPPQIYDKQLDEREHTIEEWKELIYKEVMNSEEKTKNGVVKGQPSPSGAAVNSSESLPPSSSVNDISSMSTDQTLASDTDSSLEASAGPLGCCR
row,IC50,Structure (SMILES)
1,1700 nM,"Cn1cc(-c2n[nH]c3ncc(C4CCCCC4)cc23)cn1 [Example 1, 5-cyclohexyl-3-(1-methyl-1H-pyrazol-4-yl)-1H-pyrazolo[3,4-b]pyridine]"
2,178 nM,"Cn1cc(-c2c[nH]c3ncc(C4CCCCC4)nc23)cn1 [Example 4, 2-cyclohexyl-7-(1-methyl-1H-pyrazol-4-yl)-5H-pyrrolo[3,2-b]pyrazine]"
3,> 2000 nM,"Cn1cc(-c2n[nH]c3ncc([C@H]4CC[C@@H](N5CCCOCC5)CC4)cc23)cn1 [Example 3, 4-((1s,4s)-4-(3-(1-methyl-1H-pyrazol-4-yl)-1H-pyrazolo[3,4-b]pyridin-5-yl)cyclohexyl)-1,4-oxazepane]"
4,> 2000 nM,"Cn1cc(-c2n[nH]c3ncc([C@H]4CC[C@H](N5CCCOCC5)CC4)cc23)cn1 [Example 2, 4-((1r,4r)-4-(3-(1-methyl-1H-pyrazol-4-yl)-1H-pyrazolo[3,4-b]pyridin-5-yl)cyclohexyl)-1,4-oxazepane]"
